From the NIST ThermoML archive (doi:10.1021/je800234h)

Test: mn = molality of the nth substance listed, in mol/kg
Settings: Liquid, Vibrating tube method

[Ca+2].[Cl-].[Cl-] [calcium chloride] + CCO
Settings	mass density [kg/m3]
298.15 K, 210 kPa, m1 = 1.55	901.58
298.15 K, 260 kPa, m1 = 1.266	881.44
298.15 K, 280 kPa, m1 = 0.1743	800.14
298.15 K, 480 kPa, m1 = 0.09327	793.4
298.15 K, 670 kPa, m1 = 0.9896	861.73
298.15 K, 1020 kPa, m1 = 0.4379	820.65
298.15 K, 1170 kPa, m1 = 0.6899	839.86
298.15 K, 5010 kPa, m1 = 0.6899	843.06
298.15 K, 5020 kPa, m1 = 1.55	905.41
298.15 K, 5030 kPa, m1 = 0.4379	824.03
298.15 K, 5060 kPa, m1 = 0.09327	797.34
298.15 K, 5060 kPa, m1 = 1.266	885.32
298.15 K, 6330 kPa, m1 = 0.9896	866.36
298.15 K, 6580 kPa, m1 = 0.1743	804.98
298.15 K, 10030 kPa, m1 = 0.09327	801.45
298.15 K, 10410 kPa, m1 = 1.55	909.48
298.15 K, 10450 kPa, m1 = 0.4379	828.43
298.15 K, 10830 kPa, m1 = 0.9896	869.87
298.15 K, 10850 kPa, m1 = 1.266	889.78
298.15 K, 11050 kPa, m1 = 0.6899	847.88
298.15 K, 11330 kPa, m1 = 0.1743	808.85
298.15 K, 14860 kPa, m1 = 1.266	892.71
298.15 K, 15090 kPa, m1 = 0.9896	873.05
298.15 K, 15120 kPa, m1 = 0.6899	850.99
298.15 K, 15240 kPa, m1 = 1.55	912.94
298.15 K, 15470 kPa, m1 = 0.09327	805.77
298.15 K, 15480 kPa, m1 = 0.4379	832.33
298.15 K, 15720 kPa, m1 = 0.1743	812.29
298.15 K, 20020 kPa, m1 = 0.9896	876.57
298.15 K, 20080 kPa, m1 = 1.266	896.35
298.15 K, 20130 kPa, m1 = 0.6899	854.64
298.15 K, 20260 kPa, m1 = 1.55	916.34
298.15 K, 20460 kPa, m1 = 0.4379	836.02
298.15 K, 20490 kPa, m1 = 0.1743	815.89
298.15 K, 20640 kPa, m1 = 0.09327	809.69
298.15 K, 25010 kPa, m1 = 1.55	919.38
298.15 K, 25130 kPa, m1 = 0.9896	880.03
298.15 K, 25310 kPa, m1 = 0.6899	858.24
298.15 K, 25390 kPa, m1 = 0.09327	813.15
298.15 K, 25410 kPa, m1 = 1.266	899.86
298.15 K, 25750 kPa, m1 = 0.4379	839.75
298.15 K, 25820 kPa, m1 = 0.1743	819.73
298.15 K, 30060 kPa, m1 = 1.266	902.74
298.15 K, 30110 kPa, m1 = 0.9896	883.22
298.15 K, 30120 kPa, m1 = 0.6899	861.41
298.15 K, 30190 kPa, m1 = 0.09327	816.48
298.15 K, 30420 kPa, m1 = 1.55	922.62
298.15 K, 30640 kPa, m1 = 0.4379	843.03
298.15 K, 31460 kPa, m1 = 0.1743	823.58
298.15 K, 34210 kPa, m1 = 0.6899	863.97
298.15 K, 35050 kPa, m1 = 1.55	925.22
298.15 K, 35340 kPa, m1 = 0.1743	826.11
298.15 K, 35510 kPa, m1 = 0.9896	886.47
298.15 K, 35640 kPa, m1 = 0.09327	820.09
298.15 K, 35830 kPa, m1 = 0.4379	846.33
298.15 K, 35910 kPa, m1 = 1.266	906.14
298.15 K, 39770 kPa, m1 = 0.6899	867.27
298.15 K, 39860 kPa, m1 = 0.9896	888.93
298.15 K, 39920 kPa, m1 = 0.09327	822.78
298.15 K, 39960 kPa, m1 = 1.55	927.8
298.15 K, 39970 kPa, m1 = 0.4379	848.83
298.15 K, 39980 kPa, m1 = 1.266	908.34
298.15 K, 40180 kPa, m1 = 0.1743	829.13
323.15 K, 150 kPa, m1 = 0.09327	771.32
323.15 K, 240 kPa, m1 = 0.1743	777.83
323.15 K, 310 kPa, m1 = 1.266	857.3
323.15 K, 450 kPa, m1 = 0.4379	798.42
323.15 K, 520 kPa, m1 = 1.55	876.88
323.15 K, 1060 kPa, m1 = 0.6899	817.18
323.15 K, 1570 kPa, m1 = 0.9896	839.21
323.15 K, 4980 kPa, m1 = 0.4379	802.82
323.15 K, 5060 kPa, m1 = 0.1743	782.74
323.15 K, 5070 kPa, m1 = 1.266	861.31
323.15 K, 5120 kPa, m1 = 1.55	881.08
323.15 K, 5160 kPa, m1 = 0.9896	842.61
323.15 K, 5240 kPa, m1 = 0.09327	776.5
323.15 K, 5300 kPa, m1 = 0.6899	821.26
323.15 K, 9780 kPa, m1 = 0.4379	807.29
323.15 K, 10060 kPa, m1 = 1.266	865.4
323.15 K, 10180 kPa, m1 = 0.6899	825.76
323.15 K, 10340 kPa, m1 = 0.09327	781.44
323.15 K, 10480 kPa, m1 = 0.1743	787.98
323.15 K, 10740 kPa, m1 = 1.55	885.92
323.15 K, 10890 kPa, m1 = 0.9896	847.78
323.15 K, 15020 kPa, m1 = 1.55	889.39
323.15 K, 15060 kPa, m1 = 0.4379	811.96
323.15 K, 15370 kPa, m1 = 0.6899	830.3
323.15 K, 15410 kPa, m1 = 1.266	869.66
323.15 K, 15420 kPa, m1 = 0.9896	851.64
323.15 K, 15620 kPa, m1 = 0.1743	792.67
323.15 K, 15780 kPa, m1 = 0.09327	786.43
323.15 K, 19980 kPa, m1 = 1.266	873.2
323.15 K, 20040 kPa, m1 = 0.4379	816.13
323.15 K, 20060 kPa, m1 = 0.9896	855.4
323.15 K, 20420 kPa, m1 = 1.55	893.5
323.15 K, 20640 kPa, m1 = 0.1743	796.99
323.15 K, 20640 kPa, m1 = 0.6899	834.66
323.15 K, 20980 kPa, m1 = 0.09327	790.93
323.15 K, 24860 kPa, m1 = 1.266	876.87
323.15 K, 24870 kPa, m1 = 0.4379	819.96
323.15 K, 25080 kPa, m1 = 0.9896	859.23
323.15 K, 25310 kPa, m1 = 1.55	896.97
323.15 K, 25390 kPa, m1 = 0.6899	838.36
323.15 K, 25680 kPa, m1 = 0.09327	794.77
323.15 K, 25870 kPa, m1 = 0.1743	801.22
323.15 K, 30020 kPa, m1 = 0.4379	823.82
323.15 K, 30070 kPa, m1 = 1.266	880.67
323.15 K, 30140 kPa, m1 = 1.55	900.16
323.15 K, 30180 kPa, m1 = 0.6899	841.89
323.15 K, 30380 kPa, m1 = 0.1743	804.64
323.15 K, 30390 kPa, m1 = 0.09327	798.4
323.15 K, 30450 kPa, m1 = 0.9896	863.05
323.15 K, 35150 kPa, m1 = 0.4379	827.42
323.15 K, 35160 kPa, m1 = 1.266	884.27
323.15 K, 35210 kPa, m1 = 0.9896	866.21
323.15 K, 35620 kPa, m1 = 1.55	903.49
323.15 K, 35760 kPa, m1 = 0.6899	845.73
323.15 K, 35870 kPa, m1 = 0.09327	802.35
323.15 K, 35920 kPa, m1 = 0.1743	808.56
323.15 K, 39760 kPa, m1 = 0.4379	830.46
323.15 K, 39860 kPa, m1 = 0.09327	805.04
323.15 K, 39870 kPa, m1 = 1.266	887.49
323.15 K, 39940 kPa, m1 = 0.1743	811.21
323.15 K, 39940 kPa, m1 = 0.6899	848.42
323.15 K, 39960 kPa, m1 = 0.9896	869.15
323.15 K, 39980 kPa, m1 = 1.55	905.92
348.15 K, 270 kPa, m1 = 1.266	833.32
348.15 K, 310 kPa, m1 = 1.55	852.87
348.15 K, 580 kPa, m1 = 0.9896	814.32
348.15 K, 620 kPa, m1 = 0.4379	774.92
348.15 K, 750 kPa, m1 = 0.09327	748.39
348.15 K, 750 kPa, m1 = 0.6899	792.97
348.15 K, 890 kPa, m1 = 0.1743	755.18
348.15 K, 5060 kPa, m1 = 0.9896	819.3
348.15 K, 5060 kPa, m1 = 1.266	837.99
348.15 K, 5080 kPa, m1 = 0.6899	797.87
348.15 K, 5090 kPa, m1 = 0.1743	760.16
348.15 K, 5130 kPa, m1 = 0.4379	780.06
348.15 K, 5210 kPa, m1 = 1.55	858.12
348.15 K, 5620 kPa, m1 = 0.09327	754.25
348.15 K, 10160 kPa, m1 = 1.55	863.08
348.15 K, 10240 kPa, m1 = 0.4379	785.57
348.15 K, 10310 kPa, m1 = 0.9896	824.81
348.15 K, 10410 kPa, m1 = 0.6899	803.58
348.15 K, 10450 kPa, m1 = 1.266	843.06
348.15 K, 10480 kPa, m1 = 0.1743	766.21
348.15 K, 10820 kPa, m1 = 0.09327	760.15
348.15 K, 14890 kPa, m1 = 0.6899	808.11
348.15 K, 15210 kPa, m1 = 0.9896	829.63
348.15 K, 15310 kPa, m1 = 0.4379	790.73
348.15 K, 15380 kPa, m1 = 0.09327	765.02
348.15 K, 15680 kPa, m1 = 1.55	868.22
348.15 K, 15760 kPa, m1 = 0.1743	771.77
348.15 K, 15840 kPa, m1 = 1.266	847.95
348.15 K, 19980 kPa, m1 = 1.266	851.59
348.15 K, 20060 kPa, m1 = 0.6899	813.01
348.15 K, 20430 kPa, m1 = 0.09327	770.09
